The values that follow come from patent publication US20240287082A1, “NEW BENZODIAZEPINE DERIVATIVES AS GABA A GAMMA1 PAM” (Hoffmann-La Roche Inc., priority 2021, published 2024).

Usually Ki stands for the dissociation constant of the complex between target and ligand, obtained from inhibition or displacement.

Read-outs that look alike come from different tables or passages of the source.

The target of one test is h-GABA-A α2β2γ1 (Homo sapiens (Human), UniProt P47869+Q8N1C3). The test is described as follows: Two-electrode voltage clamp electrophysiology in Xenopus oocytes expressing GABAA receptors, modulation of GABA EC20 current. In kind it is cell-based. To be noted: for Efficacy (GABA) %: % modulation of GABA EC20 = 100*(Fold increase−1), compound at 30-fold Ki α2β2γ1; for Fold increase h-GABA-A α2β2γ1 oocyte @ 30-fold Ki: Xenopus oocytes, GABA EC20, test compound at approx. 30-fold its Ki α2β2γ1; for potentiation of the GABA-induced current: α2β2γ1 GABAA receptor subtype expressing oocytes, reference PAMs. As to the method: Xenopus laevis oocytes at maturation stages V-VI were used for the expression of cloned mRNA encoding GABAA receptor subunits. Oocytes ready for RNA micro-injection were bought from Ecocyte, Castrop-Rauxel, Germany and stored in modified Barth's medium (composition in mM: NaCl 88, KCl 1, NaHCO3 2.4, HEPES 10, MgSO4 0.82, CaNO3 0.33, CaCl2 0.33, pH=7.5) at 20° C. until the experiment.
Oocytes were plated in 96-well plates for microinjection using the Roboinject automated instrument (MultiChannelSystems, Reutlingen, Germany). Approximately 50 nL of an aqueous solution containing the RNA transcripts for the subunits of the desired GABAA receptor subtype was injected into each oocyte. […] Oocytes were kept in modified Barth's medium (composition in mM: NaCl 88, KCl 1, NaHCO3 […], HEPES 10, MgSO4 0.82, CaNO3 0.33, CaCl2 0.33, pH=7.5) at 20° C. until the experiment.
Electrophysiological experiments were performed using the Roboocyte instrument (MultiChannelSystems, Reutlingen, Germany) on days 3 to 5 after the micro-injection of mRNA. During the experiment the oocytes were constantly superfused by a solution containing (in mM) NaCl 90, KCl 1, HEPES 5, MgCl2 1, CaCl2 1 (pH 7.4). Oocytes were impaled by two glass microelectrodes (resistance: 0.5-0.8 MΩ) which were filled with a solution containing KCl 1M+K-acetate 1.5 M and voltage-clamped to −80 mV. The recordings were performed at room temperature using the Roboocyte two-electrode voltage clamp system (Multichannelsystem). After an initial equilibration period of 1.5 min GABA was added for 1.5 min at a concentration evoking approximately 20% of a maximal current response (EC20). After another rest interval of 2.5 min GABA was again added evoking a response of similar amplitude and shape. […] Current traces were recorded at a digitization rate of 10 Hz during and shortly before and after the GABA application.
Each compound and concentration was tested on at least 3 oocytes. Different oocytes were used for different compound concentrations.
For the analysis, the digitized current traces of the first and second GABA response were superimposed and, if necessary, rescaled to equal maximal amplitudes. The ratio between the two responses during the time interval of test compound application was calculated point by point. The extremum of the resulting “ratio trace” was taken as the efficacy (“Fold increase”) of the compound expressed as “% modulation of GABA EC20” (100*(Fold increase−1)).

Test [1] has as its target human GABAA α1β3γ2 receptor (Homo sapiens (Human), UniProt P14867+P18507). The test is described as follows: Radioligand binding assay, competition for [3H]Flumazenil, γ2-containing GABAA subtype α1β3γ2. As to the method:
The affinity of compounds at GABAA γ2 subunit-containing receptors was measured by competition for [^3H]Flumazenil (81.1 Ci/mmol; Roche) binding to HEK293F cells expressing human (transiently transfected) receptors of composition α1β3γ2.
Harvested pellets from HEK293F cells expressing the different GABAA γ2 receptor subtypes were resuspended in Mannitol Buffer pH 7.2-7.4 and processed as described above for the cells expressing the GABAA γ1 subunit-containing receptors.
Assays were incubated to equilibrium for 1 hour at 4° C. and harvested onto GF/C uni-filters (Packard) by filtration using a Packard harvester and washing with ice-cold wash buffer (50 mM Tris; pH 7.5). After anhydrousing, filter-retained radioactivity was detected by liquid scintillation counting. Ki values were calculated using Excel-Fit (Microsoft) and are the means of two determinations.

The target in test [2] is human GABAA α2β2γ1 receptor (Homo sapiens (Human), UniProt P47869+Q8N1C3). The test is described as follows: Radioligand binding assay, competition for [3H]RO7239181, γ1-containing GABAA subtype α2β2γ1. Particulars: for γ2/γ1 Selectivity Ratio: Ki α1β3γ2 (nM)/Ki α2β2γ1 (nM); for LogSel: Log[Ki α1β3γ2 (nM)/Ki α2β2γ1 (nM)]. As to the method: The affinity of compounds at GABAA γ1 subunit-containing receptors was measured by competition for [^3H]RO7239181 (67.3 Ci/mmol; Roche) binding to membranes from HEK293F cells (ThermoFisher R^79007) expressing human (transiently transfected) receptors of composition α5β2γ1, α2β2γ1, α1β2γ1.
(§1) Harvested pellets from HEK293F cells expressing the different GABAA receptor subtypes were resuspended in Mannitol Buffer pH 7.2-7.4 (Mannitol 0.29M, Triethylamine 10 mM, Acetic acid 10 mM, EDTA 1 mM plus protease inhibitors (20 tablets Complete, Roche Diagnostics Cat. No. 05 056 489 001 per liter)), washed two times and then resuspended at 1:10 to 1:15 dilution in the same buffer. Cell disruption was performed by stirring the suspension in a Parr vessel #4637 at 435 psi for 15 minutes, and then the suspensions were centrifuged at 1000×g for 15 minutes at 4° C. (Beckman Avanti J-HC: rotor JS-4.2). The supernatant (S1) was transferred in a 21 Schott flask and the pellet (P1) was resuspended with Mannitol Buffer up to 175 ml. The resuspended pellet was transferred into a 250 ml Corning centrifugal beaker and centrifuged at 1500×g for 10 minutes at 4° C. (Beckman Avanti J-HC: rotor JS-4.2). The supernatant (S1) was then transferred in the 21 Schott flask and the pellet was discarded. The supernatants (S1) were centrifuged in 500 ml Beckman polypropylene centrifugal beaker at 15 000×g for 30 minutes at 4° C. (Beckman Avanti J-20 XP: rotor JLA-10.500). The pellet (P2) was resuspended with Mannitol Buffer 1:1 and frozen at −80° C. The supernatant (S2) was centrifuged in 100 ml Beckman polypropylene centrifugal tubes at 48000×g for 50 minutes at 4° C. (Beckman Avanti J-20 XP: rotor JA-18). The supernatant (S3) was discarded and the pellet (P3) was resuspended with 1:1 Mannitol Buffer. The P2 and P3 protein concentration was determined with the BIORAD Standard assay method with bovine serum albumin as standard and measured on the NANO-Drop 1000. The membrane suspension was aliquots (500 μl per tube) and stored at −80° C. until required.
(§2) Membrane homogenates were resuspended and polytronised (Polytron PT1200E Kinematica AG) in Potassium Phosphate 10 mM, KCl 100 mM binding buffer at pH 7.4 to a final assay concentration determined with a previous experiment.
(§3) Assays were incubated to equilibrium for 1 hour at 4° C. and then, membranes were filtered onto unifilter (96-well white microplate with bonded GF/C filters preincubated 20-50 minutes in 0.3% Polyethylenimine) with a Filtermate 196 harvester (Packard BioScience) and washed 4 times with cold Potassium Phosphate 10 mM pH 7.4, KCl 100 mM binding buffer. After anhydrousing, filter-retained radioactivity was detected by liquid scintillation counting. Ki values were calculated using Excel-Fit (Microsoft) and are the means of two determinations.

Test [3] concerns the target human GABAA α5β2γ1 receptor (Homo sapiens (Human), UniProt P31644+Q8N1C3). Description: Radioligand binding assay, competition for [3H]RO7239181, γ1-containing GABAA subtype α5β2γ1. The method, then:
The affinity of compounds at GABAA γ1 subunit-containing receptors was measured by competition for [^3H]RO7239181 (67.3 Ci/mmol; Roche) binding to membranes from HEK293F cells (ThermoFisher R^79007) expressing human (transiently transfected) receptors of composition α5β2γ1, α2β2γ1, α1β2γ1. For better protein expression of the α2 subunit-containing receptors, the 28 amino acid long signal peptide (Met1 to Ala28)of the human GABAA α2 subunit was substituted by the 31 amino acid long signal peptide (Met1 to Ser31) of human GABAA α5 subunit.
as §1, §2
as §3, with “Radioligand binding assays were carried out in a volume of 200 μL (96-well plates) which contained 100 μL of cell membranes, [3H]RO7239181 at a concentration of 1.5 nM (α5β2γ1) or 20-30 nM (α1β2γ1, α2β2γ1) and the test compound in the range of [0.3-1000]×10^−9 M. Nonspecific binding was defined by 10×10^−6 (α5β2γ1) and 30×10^−6 M RO7239181 and typically represented less than 5% (α5β2γ1) and less than 20% (α1β2γ1, α2β2γ1) of the total binding. Assays” for “Assays”

[4] abbreviates: read-out: Ki h-GABAA α2β2γ1, Table 2, membranes of HEK293F cells, [3H]RO7239181.

On to `O=c1nc2n(cc1Br)-c1ccc(Br)c(Cl)c1C(c1c(F)cccc1F)=NC2` [Example 15, 2,9-dibromo-8-chloro-7-(2,6-difluorophenyl)-5H-pyrimido[1,2-a][1,4]benzodiazepin-3-one], for which, at h-GABA-A α2β2γ1, the “Efficacy (GABA) %” value came to 69% and the “Fold increase h-GABA-A α2β2γ1 oocyte @ 30-fold Ki” value is 1.69. Besides, the Ki in test [1] was determined as 1970 nM. In test [2], the Ki worked out at 8 nM, the “γ2/γ1 Selectivity Ratio” value worked out at 244.8 and the LogSel was found to be 2.39. In test [2] (setting [4]), the Ki was found to be 8 nM. Further, the affinity in test [3] corresponds to a Ki of 0.8 nM.

In the case of `Cc1ccc2c(c1Cl)C(c1c(F)cccc1F)=N[C@@H](C)c1nc(=O)c(C)cn1-2` [Example 8, (5S)-8-chloro-7-(2,6-difluorophenyl)-2,5,9-trimethyl-5H-pyrimido[1,2-a][1,4]benzodiazepin-3-one], at h-GABA-A α2β2γ1, the “Efficacy (GABA) %” value is reported as 115% and the “Fold increase h-GABA-A α2β2γ1 oocyte @ 30-fold Ki” value was 2.15. Moreover, in test [1], the Ki was 1240 nM. Besides, in test [2], the Ki worked out at 37.7 nM, the “γ2/γ1 Selectivity Ratio” value is on record as 32.7 and the LogSel was determined as 1.51. The Ki in test [2] (setting [4]) turned out to be 37.7 nM. Further, the affinity in test [3], expressed as Ki, was 2 nM.

In the case of `C[C@@H]1N=C(c2c(F)cccc2F)c2c(ccc(Cl)c2Br)-n2cc(Br)c(=O)nc21` [Example 23, (5S)-2,8-dibromo-9-chloro-7-(2,6-difluorophenyl)-5-methyl-5H-pyrimido[1,2-a][1,4]benzodiazepin-3-one], at h-GABA-A α2β2γ1, the “Efficacy (GABA) %” value is on record as 107% and the “Fold increase h-GABA-A α2β2γ1 oocyte @ 30-fold Ki” value is reported as 2.07. The molecule further registered a Ki in test [1] of 3000 nM. In test [2], the Ki was determined as 74.1 nM, the “γ2/γ1 Selectivity Ratio” value was determined as 40.5 and the LogSel is recorded as 1.61. In test [2] (setting [4]), the Ki was 74.1 nM. In test [3], this molecule gave a Ki of 6.8 nM.

On to `C[C@@H]1N=C(c2c(F)cccc2F)c2c(ccc(Cl)c2Br)-n2ccc(=O)nc21` [Example 6, (5S)-8-bromo-9-chloro-7-(2,6-difluorophenyl)-5-methyl-5H-pyrimido[1,2-a][1,4]benzodiazepin-3-one], for which, at h-GABA-A α2β2γ1, the “Efficacy (GABA) %” value is given as 121%. For the same molecule, the “Fold increase h-GABA-A α2β2γ1 oocyte @ 30-fold Ki” value on h-GABA-A α2β2γ1 is given as 2.21. Besides, the Ki in test [1] came out at 1780 nM; in test [2] it was 49.9 nM; in test [2] (setting [4]) it was 49.9 nM; in test [3], 4.8 nM. In addition, the “γ2/γ1 Selectivity Ratio” value in test [2] turned out to be 35.7. The molecule also displayed a LogSel in test [2] of 1.55.

In the case of `CCc1cn2c(nc1=O)[C@H](C)N=C(c1c(F)cccc1F)c1c-2ccc(Cl)c1Cl` [Example 14, (5S)-8,9-dichloro-7-(2,6-difluorophenyl)-2-ethyl-5-methyl-5H-pyrimido[1,2-a][1,4]benzodiazepine-3-one], on h-GABA-A α2β2γ1, the “Efficacy (GABA) %” value came out at 66% and the “Fold increase h-GABA-A α2β2γ1 oocyte @ 30-fold Ki” value is recorded as 1.66. For the same molecule, the affinity in test [1] corresponds to a Ki of 909 nM. Moreover, in test [2], the affinity corresponds to a Ki of 15.6 nM, the “γ2/γ1 Selectivity Ratio” value stood at 58.4 and the LogSel was determined as 1.77. Also, the Ki in test [2] (setting [4]) was 15.6 nM. The molecule also gave a Ki in test [3] of 2.3 nM.

In the case of `CN1C(=O)CN=C(c2ccccc2F)c2cc([N+](=O)[O-])ccc21` [Flunitrazepam, reference compound], the “potentiation of the GABA-induced current” value on h-GABA-A α2β2γ1 is reported as approximately 60%.

In turn, `O=c1ccn2c(n1)CN=C(c1ccccc1F)c1cc(Cl)ccc1-2` [RE-A, 9-chloro-7-(2-fluorophenyl)-5H-pyrimido[1,2-a][1,4]benzodiazepin-3-one, reference compound] yielded a Ki in test [1] of 27.8 nM. Further, affinity in test [2] was put at a Ki of 123 nM. Further, in test [2] (Table 3), the “γ2/γ1 Selectivity Ratio” value was 0.23 and the LogSel is on record as −0.64.

Consider `Cc1ncc2n1-c1ccc(Cl)cc1C(c1ccccc1F)=NC2` [Midazolam, reference compound], for which, at h-GABA-A α2β2γ1, the “potentiation of the GABA-induced current” value was approximately 60%. In addition, the LogSel in test [2] (Table 3) was −2.2.

In test [2] (Table 3), `Cc1nnc2n1-c1ccc(Cl)cc1C(c1ccccc1)=NC2` [Alprazolam, reference compound] returned a LogSel of −2.3.

As for `Cc1nnc2n1-c1ccc(Cl)cc1C(c1ccccc1Cl)=NC2` [Triazolam, reference compound], the “potentiation of the GABA-induced current” value at h-GABA-A α2β2γ1 is approximately 60%. In test [2] (Table 3), this molecule had a LogSel of −1.5.
